Test results taken from ChEMBL document CHEMBL1135631, “Design and evaluation of affinity labels of functionalized amino acid anticonvulsants” (J Med Chem, 2002).

What was measured:
Mus musculus = assay: (§1) Anticonvulsant activity using MES test in mice after intraperitoneal administration; assay type: functional; conditions: ip
Rattus norvegicus = assay: Anticonvulsant activity using MES test in rat after oral administration; assay type: functional
[1] = Neurologic toxicity using rotarod test in rat after oral administration; assay type: organism-based; conditions: in vivo
[2] = Neurologic toxicity using rotarod test in mice after intraperitoneal administration; assay type: organism-based; conditions: mouse, in vivo, ip
[3] = Protective index as the ratio of TD50 value to that of ED50 value in rat.; assay type: functional
[4] = Protective index as the ratio of TD50 value to that of ED50 value in mice.; assay type: functional
[5] = molecular target: Metabotropic glutamate receptor 1 (Rattus norvegicus) (UniProt P23385); assay: as §1; assay type: functional, organism-based; conditions: Mus musculus; target entry is the homologue from another species
Metabotropic glutamate receptor 1 (Rattus norvegicus), sequence (P23385 19-1199 limits assumed): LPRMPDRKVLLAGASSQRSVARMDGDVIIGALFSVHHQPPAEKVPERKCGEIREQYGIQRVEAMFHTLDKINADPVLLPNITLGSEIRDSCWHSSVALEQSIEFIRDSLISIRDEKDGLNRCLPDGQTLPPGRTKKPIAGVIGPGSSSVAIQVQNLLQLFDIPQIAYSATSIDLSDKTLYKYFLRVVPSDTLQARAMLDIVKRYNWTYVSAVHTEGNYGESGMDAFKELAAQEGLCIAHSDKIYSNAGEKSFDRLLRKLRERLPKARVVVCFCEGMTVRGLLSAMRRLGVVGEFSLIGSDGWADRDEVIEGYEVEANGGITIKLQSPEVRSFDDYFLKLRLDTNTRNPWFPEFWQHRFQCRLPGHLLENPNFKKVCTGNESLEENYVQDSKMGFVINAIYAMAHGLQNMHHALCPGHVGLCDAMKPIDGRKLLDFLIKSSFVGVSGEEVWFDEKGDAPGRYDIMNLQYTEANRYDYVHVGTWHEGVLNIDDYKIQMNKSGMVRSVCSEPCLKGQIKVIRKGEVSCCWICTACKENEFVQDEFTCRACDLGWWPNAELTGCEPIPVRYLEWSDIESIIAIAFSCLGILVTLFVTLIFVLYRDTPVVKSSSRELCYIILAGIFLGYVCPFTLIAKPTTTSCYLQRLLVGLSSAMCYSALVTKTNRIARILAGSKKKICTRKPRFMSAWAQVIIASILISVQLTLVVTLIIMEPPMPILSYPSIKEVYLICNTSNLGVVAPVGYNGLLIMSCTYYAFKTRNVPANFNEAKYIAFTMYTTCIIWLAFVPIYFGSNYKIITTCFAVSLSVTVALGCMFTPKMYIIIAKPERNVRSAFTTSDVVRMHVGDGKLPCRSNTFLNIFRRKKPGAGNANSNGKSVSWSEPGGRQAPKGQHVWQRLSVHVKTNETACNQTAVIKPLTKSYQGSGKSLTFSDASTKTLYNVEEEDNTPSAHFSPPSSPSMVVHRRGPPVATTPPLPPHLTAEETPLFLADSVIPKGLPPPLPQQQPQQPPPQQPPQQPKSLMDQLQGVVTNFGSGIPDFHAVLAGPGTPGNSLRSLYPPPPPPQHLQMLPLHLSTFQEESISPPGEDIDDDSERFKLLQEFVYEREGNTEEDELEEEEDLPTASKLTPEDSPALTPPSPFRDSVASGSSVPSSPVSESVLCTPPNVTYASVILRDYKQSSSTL

SMILES	ED50 (Mus musculus) [mg/kg]	ED50 (Rattus norvegicus) [mg/kg]	TD50 [1] [mg/kg]	TD50 [2] [mg/kg]	PI [3]	PI [4]	ED50 [5] [mg/kg]
CC(=O)NC(CCCCN=C=S)C(=O)NCc1ccccc1 (racemic)	> 30	> 30	> 30	> 30	–	–	–
COC[C@H](NC(C)=O)C(=O)NCc1cccc(N=C=S)c1	> 100	> 150	> 150	> 100	–	–	–
COC[C@H](NC(C)=O)C(=O)NCc1ccccc1	–	> 30	> 30	> 300	–	–	–
COCC(NC(C)=O)C(=O)NCc1ccccc1 (racemic)	–	–	37	–	101	5.2	–
COC[C@@H](NC(C)=O)C(=O)NCc1ccc(N=C=S)cc1	24	4.2	> 250	47	>59	2	–
O=C1NC(=O)C(c2ccccc2)(c2ccccc2)N1 [PHENYTOIN]	–	30	–	–	–	–	–
CCCC(CCC)C(=O)O [VALPROIC ACID]	270	–	–	–	–	–	–
COC[C@@H](NC(C)=O)C(=O)NCc1cccc(N=C=S)c1	–	28	> 250	120	>9	1.6	74
CCC1(c2ccccc2)C(=O)NC(=O)NC1=O [PHENOBARBITAL]	22	9.1	–	–	–	–	–
COC[C@H](NC(=O)CBr)C(=O)NCc1ccccc1	> 30	–	–	> 30	–	–	–
CCOCC(NC(C)=O)C(=O)NCc1ccccc1 (racemic)	17	–	–	–	–	–	–
CCCC(NC(C)=O)C(=O)NCc1ccccc1 (racemic)	38	30	> 30	160	>30	4.2	–
COC[C@@H](NC(=O)CBr)C(=O)NCc1ccccc1	> 300	–	–	> 30	–	–	–
C=CC(=O)NC(COC)C(=O)NCc1ccccc1 (racemic)	> 100	> 30	> 30	> 300	–	–	–
COC[C@H](NC(C)=O)C(=O)NCc1ccc(N=C=S)cc1	> 100	> 180	> 30	> 30	–	–	–
COC[C@@H](NC(C)=O)C(=O)NCc1ccccc1 [LACOSAMIDE]	–	–	> 500	–	>128	6	–
